Measured values as given in patent US20110117200A1 (ACTAVIS GROUP PTC EHF, priority 2008, published 2011).
Structures can show the parent of a compound that is named as a salt.

What was measured:
[1] = sunflower oil dispersant; for Particle size (D50): size below which 50% of the particles by volume are found; for Particle size (D90): size below which 90% of the particles by volume are found
Protocol: Particle Size Distribution (PSD)” is determined by laser diffraction in a Malvern Master Sizer 2000 equipment or its equivalent: Measurement conditions:
As used herein, “Particle Size Distribution (P.S.D)” means the cumulative volume size distribution of equivalent spherical diameters as determined by laser diffraction in Malvern Master Sizer 2000 equipment or its equivalent.
As used herein, Dx means that X percent of the particles have a diameter less than a specified diameter D. Thus, a D90 or d(0.9) of less than 300 microns means that 90 volume-percent of the particles in a composition have a diameter less than 300 microns.
The important characteristics of the PSD were the (D90), which is the size, in microns, below which 90% of the particles by volume are found, and the (D50), which is the size, in microns, below which 50% of the particles by volume are found.

[2] = cited from earlier work
[3] = target: B-form of the enzyme monoamine oxidase (MAO-B) (Homo sapiens, UniProt P27338); conditions: qualitative statement in the background; cited from earlier work
Chain of B-form of the enzyme monoamine oxidase (MAO-B) (P27338 whole entry, species assumed): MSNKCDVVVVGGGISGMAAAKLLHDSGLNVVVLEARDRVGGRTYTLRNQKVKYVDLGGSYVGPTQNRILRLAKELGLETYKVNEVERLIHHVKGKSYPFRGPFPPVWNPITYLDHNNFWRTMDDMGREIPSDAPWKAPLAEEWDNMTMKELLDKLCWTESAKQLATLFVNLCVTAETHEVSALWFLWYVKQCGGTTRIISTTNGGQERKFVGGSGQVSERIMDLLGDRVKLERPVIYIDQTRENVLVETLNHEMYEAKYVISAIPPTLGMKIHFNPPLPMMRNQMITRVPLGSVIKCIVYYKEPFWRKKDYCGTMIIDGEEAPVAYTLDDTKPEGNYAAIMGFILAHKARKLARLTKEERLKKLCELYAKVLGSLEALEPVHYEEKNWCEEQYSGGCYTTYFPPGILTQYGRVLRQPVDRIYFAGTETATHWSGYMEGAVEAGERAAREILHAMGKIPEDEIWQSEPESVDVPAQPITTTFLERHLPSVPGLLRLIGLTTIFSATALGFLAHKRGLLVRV

| SMILES | Particle size (D50) [1] [microns] | Particle size (D90) [1] | other results |
| --- | --- | --- | --- |
| C#CCN[C@@H]1CCc2ccccc21 [Example 1, rasagiline mesylate] | 663 | 1407 microns | – |
| C#CCN[C@@H]1CCc2ccccc21 [Example 2, rasagiline mesylate] | 864 | 1496 microns | – |
| C#CCN[C@@H]1CCc2ccccc21 [Example 3, rasagiline mesylate] | – | less than 300 microns | – |
| C#CCN[C@@H]1CCc2ccccc21 [Example 4, rasagiline mesylate] | – | less than 400 microns | – |
| C#CCN[C@@H]1CCc2ccccc21.CS(=O)(=O)O [Rasagiline mesylate, rasagiline mesylate] | – | – | Solubility in ethanol ([2]; ethanol): freely soluble; Solubility in isopropanol ([2]; isopropanol): sparingly soluble; Solubility in water ([2]; water): freely soluble |
| C#CCN[C@@H]1CCc2ccccc21 [Rasagiline, R(+)—N-propargyl-1-aminoindan] | – | – | Inhibition of MAO-B [3]: selective inhibitor |
